Where two headings read alike, the source gives them in different places.

The test system of data set [1] is Smad-4-deficient pancreatic adenocarcinoma cells (BxPC3). In words: Combined effect of Gemcitabine and LY364947 on tumor volume, pancreatic adenocarcinoma xenograft model. The data set is classed as in vivo, nude mice. The conditions noted are these: day 21, Gem 125 mg/kg i.p. twice a week, LY 1 mg/kg i.p. three times a week, value at start = 1, control 5.56±1.59. The protocol:
Combining Gemcitabine (hereinafter, abbreviated as Gem), administrated twice a week intraperitoneally at 125 mg/kg, and LY364947 (hereinafter, referred to as LY), administrated three times a week intraperitoneally at 1 mg/kg, three groups were established as follows: a control group, a Gem alone administration group and a LY+Gem combined application group, with n=2 each. […] The tumor volumes were approximated by long side of tumor mass×(short side)^2 and compared, taking 1 as the value at the administration start time for each tumor mass.

Data set [2] shares this test system. In words: 3-6 BxPC3 xenograft growth curve, single administration of ADR, Doxil, Micelle-ADR with or without LY. The data set is classed as in vivo, nude mice. The conditions noted are these: day 14, single dose 8 mg/kg anticancer agent i.v., LY 1 mg/kg i.p. once, start = 1, control 4.77±0.50. The protocol: For each of 8 mg/kg of Doxil, 8 mg/kg of Micelle-ADR or 8 mg/kg of ordinary ADR as anticancer agent, or no anticancer agent, which was administrated via the tail vein, administration was carried out only once. […] Inhib in the figures) as TGF-β inhibitor or a control.

The next data set relates to neovasculature. The data set can be described thus: Matrigel plug assay, effects of TGF-β signaling inhibitor on neovasculature. In kind it is in vivo, ICR mice. As to conditions: 500 nM LY. As for the experimental part: In the present invention, increasing the leakiness of neovasculature in tumor tissue, and, depending on the circumstances, decreasing fibrosis, are phenomena that can be observed, for instance, in a dextran injection experiment (briefly, an experiment in which a mouse is used, a Matrigel in which VEGF-A and FGF-2 have been mixed is injected subcutaneously into the abdominal wall, and seven days after administering TGF-β signaling inhibitor intraperitoneally, 2,000,000 molecular weight dextran is injected, the animal is sacrificed, and the relationship between neovasculature and dextran distribution in the extracted Matrigel plug is determined: refer to Kano, M. R. et al., J. Cell Sci., 118, 3759-3768. (2005)) (refer to FIG. 2-1 and FIG. 2-2).
VEGF-A, FGF-2, and heparin were mixed into Matrigel (BD), furthermore, 500 nM of the TGF-β inhibitor LY364947 (hereinafter, referred to as LY) or 50 μg/ml of T βRII:Fc or a control was further mixed into the same gel, these were subcutaneously injected into the abdominal wall of male ICR mice, the animals were sacrificed on the 7th day to extract the Matrigel plug, and a search was carried out using immunofluorescence staining. Concretely, regarding the neovasculature morphology, vascular endothelial cells were recognized with an antibody against PECAM-1 (platelet endothelial cell adhesion molecule-1) and vascular pericytes were recognized with an antibody against SMA (a smooth muscle actin), in the LY-administered group or control group, the proportion of the areas covered by pericytes within the total endothelial cell area, and, the areas positive for the vascular endothelium marker were quantified (hereabove, n=20). In addition, 6 hours prior to sacrifice, macromolecular dextran with a molecular weight of 2,000,000 (Invitrogen Molecular Probes) was administered via the tail vein, and the difference in distribution in tumor tissue due to the presence or absence of inhibitor was investigated by quantification of the distribution area (n=21).

A short description of data set [3]: 3-14 Drug in vivo dynamics in general organs, Micelle-ADR or ADR with LY. Also on record: species or system nude mice. As for the experimental part:
Each of 8 mg/kg of Micelle-ADR or 8 mg/kg of ADR as anticancer agent was administered to tumor-bearing nude mice via the tail vein. As TGF-β inhibitor, 1 mg/kg of LY or a control was administered intraperitoneally. Experiment was carried out for the four conditions combining the above 2×2 types [of administration modes], with n=3. […] In addition, the surrounding of the tail vein where the agents were administered was observation.

Data set [4] concerns TGFbRII-mutant pancreatic adenocarcinoma cell line MIA PaCa-2. The data set can be described thus: 3-8 MIA PaCa-2 xenograft tumor growth curve. In kind it is in vivo, nude mice. As to conditions: regimen as 3-7, start = 1, control 2.91±0.30. As for the experimental part:
For each of, 16 mg/kg of Micelle-ADR or 8 mg/kg of ADR as anticancer agent, or no anticancer agent, administration via the tail vein was carried out three times spaced by four days. As TGF-β inhibitor, 1 mg/kg of LY364947 (hereinafter, referred to as LY) or control was administered three times a week intraperitoneally. The experiment was carried out for the six conditions combining the above 3×2 types [of administration modes], with n=5 each. For these animals, the approximated values of tumor volume were observed continuously for 16 days. For the tumor volumes, those that have been approximated by long side of tumor mass×(short side)^2 were compared, taking 1 as the value at the administration start time for each tumor mass.

Data set [5] relates to Smad-4-deficient pancreatic adenocarcinoma cells (BxPC3). In words: 3-7 BxPC3 xenograft growth curve, three administrations of ADR or Micelle-ADR with or without LY. In kind it is in vivo, nude mice. As to conditions: day 16, Micelle-ADR 16 mg/kg or ADR 8 mg/kg i.v. three times spaced by four days, LY 1 mg/kg i.p. three times a week, start = 1, control 4.69±0.46. As for the experimental part: For each of, 16 mg/kg of Micelle-ADR or 8 mg/kg of ADR as anticancer agent, or no anticancer agent, administration via the tail vein was carried out three times spaced by four days. […] For these animals, the approximated values of tumor volume were observed continuously for 16 days.

In data set [6] the test system is neovasculature in BxPC3 tumor tissue. The data set can be described thus: 3-1 BxPC3 xenograft, neovasculature morphological change and dextran distribution. The data set is classed as in vivo, nude mice. The protocol: Twenty-four hours before sacrificing the animals, 1 mg/kg of LY364947 (hereinafter, referred to as LY) as TGF-β inhibitor or a control was administered once intraperitoneally. […] Concretely, regarding the neovasculature morphology, vascular endothelial cells were recognized with an antibody against PECAM-1 (platelet endothelial cell adhesion molecule-1), vascular pericytes were recognized with an antibody against NG2 (neuroglycan 2), the proportion of the areas covered by pericytes within the total endothelial cell area, and, the areas positive for the vascular endothelium marker were quantified (hereabove, n=4 animals×10 microscopic visual fields=40), in addition, regarding dextran distribution, the distribution area thereof was quantified. In addition, after an identical model was prepared, 6 hours prior to sacrifice, macromolecular dextran with a molecular weight of 2,000,000 (Invitrogen Molecular Probes) was administered via the tail vein, and the difference in distribution in tumor tissue due to the presence or absence of inhibitor was investigated by quantification of the distribution area (n=3 animals×4 microscopic visual field=12).

Data set [7] has as its system existing vasculature of general organs (brain, liver, kidney). The data set can be described thus: 3-2 General organs, vasculature morphological change and dextran distribution. As to conditions: LY 1 mg/kg i.p. In kind it is in vivo, nude mice. The source says:
Brain, liver and kidney were extracted from animals used in 3-1 to carry out histological search.

In data set [8] the test system is phosphorylated Smad2. In words: 3-4 Phosphorylated Smad2 in nucleated blood cells by FACS one hour after LY364947. The data set is classed as in vivo, nude mice. As to conditions: LY 1 mg/kg i.p., 1 h, control group 35.7%. The protocol:
Cancer-transplanted nude mice were administered once intraperitoneally with 1 mg/kg of LY as TGF-β inhibitor or a control. One hour after administration, whole blood collection was carried out, hemolysis treatment, formalin fixation, cell membrane perforation by methanol were carried out, then, staining was carried out with an antibody against phosphorylated Smad2, thereafter, the ratio of phosphorylated Smad2-positive cells was measured by FACS. In so doing, with those [samples] where only the secondary antibody was reacted serving as controls for the immuno-staining method, the gate was set so that rate of positive cell was approximately 1% in this group (P1 in FIG. 5-2), and the ratio of phosphorylated Smad2-positive cells was measured for the TGF-β inhibitor-administered group and the non-treated group.
(Flow cytometry measures light scatter and fluorescence of single cells or particles in a stream.)

For data set [9], the system named is phosphorylated Smad2. In words: 3-3 Phosphorylated Smad2 staining in BxPC3 cancer tissue one hour after LY364947. The data set is classed as in vivo, nude mice. The conditions noted are these: 1 h. As for the experimental part:
As TGF-β inhibitor, 1 mg/kg, 25 mg/kg or a control of LY was administered once intraperitoneally. The animals were sacrificed one hour after administration to extract the tumor, and immuno-histological staining of the tumor was carried out using an antibody against phosphorylated Smad2 as well as an antibody against PECAM1.

The next data set concerns hepatic fibrosis. The conditions noted are these: intraperitoneal injection, cited from earlier work.
The subject of data set [10] is mouse breast cancer cell line 4T1. The conditions noted are these: systemic administration by intraperitoneal injection; cited from earlier work.

With `Nc1ccn([C@@H]2O[C@H](CO)[C@@H](O)C2(F)F)c(=O)n1` [Gemcitabine], in data set [1], the “relative tumor volume on the last day” value came to 4.76±0.46.

Consider `c1ccc(-c2[nH]ncc2-c2ccnc3ccccc23)nc1` [LY364947], for which the “relative tumor volume on the last day” value in [2] came to 4.83±0.54. For the same molecule, the “total area of the vascular endothelium” value in the data set on neovasculature (day 7, p=0.0009) was “increased significantly”. In addition, the “endothelial cell coverage of the pericytes” value in the data set with neovasculature (day 7, vs non-administered group, p=0.006) is on record as “decreased significantly”. For the same molecule, the dextran distribution area result with neovasculature (dextran MW 2,000,000 i.v. 6 h before sacrifice, p<0.0001) is listed as “increased approximately two-fold”. Moreover, the “organ distribution (frozen samples), LY administration vs non-administration” value in data set [3] (LY 1 mg/kg i.p., four hours) is reported as “no clear difference”. Moreover, in [3] (Micelle-ADR 8 mg/kg i.v., LY 1 mg/kg i.p., four hours, all organs measured), the “total amount of ADR in organs by the HPLC method, LY administration vs non-administration” value is reported as “no significant difference”. The anticancer agent-related phlebitis result in [3] (combined administration of LY 1 mg/kg i.p., surrounding of the tail vein) is “no deterioration”. For the same molecule, the “relative tumor volume on the last day (16th day)” value in data set [4] amounted to 2.75±0.08. The “relative tumor volume on the last day” value in [5] is 4.34±0.37. Moreover, the “endothelial cell marker-positive area” value in data set [6] (BxPC3 xenograft, LY 1 mg/kg i.p. once, 24 h, control 1.00±0.03, p=0.02) is 1.13±0.06. The “extent of coverage of endothelial cells by the pericyte” value in data set [6] (BxPC3 xenograft, LY 1 mg/kg i.p. once, 24 h, control 36.0±2.2%, p=0.00002) was 23.3±1.9%. The “macromolecular dextran distribution area” value in [6] (BxPC3 xenograft, LY 1 mg/kg i.p. once, dextran MW 2,000,000 6 h before sacrifice, control 1.00±0.13, p=0.002) is reported as 2.24±0.36. Further, the “fibrosis of tumor tissue (azan staining)” value in [6] (LY 1 mg/kg, administered vs non-administered, P=0.336) was “no significant difference”. Besides, in [7], the “dextran distribution in general organs” value was “no clear difference” and the “morphology of existing vasculature of general organs” value is recorded as “No clear change in morphology”. Further, the “cells positive for phosphorylated Smad2” value with phosphorylated Smad2 [8] came to 16.3%. Also, in the data set on phosphorylated Smad2 [9] (LY 1 mg/kg i.p.), the “Smad2 phosphorylation in intratumoral vascular walls, magnified visual field” value was “cancellation of Smad2 phosphorylation was observed” and the “phosphorylated Smad2 staining of tumor vs control, weak magnification visual field” value is recorded as “no remarkable difference”. Besides, the “Smad2 phosphorylation in cancer cells” value in the data set on phosphorylated Smad2 [9] (LY 25 mg/kg i.p.) is “cancellation of Smad2 phosphorylation was observed in almost the entirety of the cancer cells”.

Regarding `COc1cccc2c1C(=O)c1c(O)c3c(c(O)c1C2=O)C[C@@](O)(C(=O)CO)C[C@@H]3O[C@H]1C[C@H](N)[C@H](O)[C@H](C)O1` [ADR, adriamycin], the results for the “relative tumor volume on the last day” value in data set [2] and in data set [5] were 4.70±0.32 and 3.49±0.20, respectively. Moreover, the “relative tumor volume on the last day (16th day)” value in data set [4] worked out at 0.87±0.19.

B1: solubilized TGF-β Type II receptor: solubilized TGF-β Type II receptor (TGF-β ligand-adsorbed) protein, literature studies (protein, UniProt P37173 23-166, looked up)
extracellular domain: TIPPHVQKSVNNDMIVTDNNGAVKFPQLCKFCDVRFSTCDNQKSCMSNCSITSICEKPQEVCVAVWRKNDENITLETVCHDPKLPYHDFILEDAASPKCIMKEKKKPGETFFMCSCSSDECNDNIIFSEEYNTSNPDLLLVIFQ
modifications: extracellular domain
notes: solubilized TGF-β Type II receptor (TGF-β ligand-adsorbed) protein, literature studies
In the case of B1, the hepatic fibrosis result in the data set with hepatic fibrosis (2.5 mg/kg) is reported as “not suppressed”; with hepatic fibrosis (5 mg/kg), “suppressed”. Besides, the lung metastasis entry in data set [10] is “decreased”.

The record behind these values is patent publication US20120258042A1, “COMBINED USE OF TGF-B SIGNALING INHIBITOR AND ANTITUMOR AGENT” (priority 2006, published 2012).
